Measured values from patent US12410211B2, “V1A receptor partial agonist and method of use” (PharmaIN Corporation, priority 2020, dated 2025).
Read-outs that look alike come from different tables or passages of the source. Marks after values point to notes of the source that are not given here. Where a SMILES comes first, the peptide text is derived from it. Bridges are numbered along the chain shown (N, C = ends). [ ]: non-standard residue; d: D form. Aad = N[C@@H](CCCC(=O)O)C(=O)O; Dab = NCC[C@H](N)C(=O)O; Mpa = O=C(O)CCS

Experiments:
V1a receptor = target: T1, V1a receptor (Homo sapiens, UniProt P37288); assay: V1a Human Vasopressin GPCR Cell Based Agonist Calcium Flux Assay; conditions: for Emax: read-out: V1a Highest agonist effect (% of AVP)
T1 construct: host or cells: CHO cells
T1 sequence (P37288 whole entry): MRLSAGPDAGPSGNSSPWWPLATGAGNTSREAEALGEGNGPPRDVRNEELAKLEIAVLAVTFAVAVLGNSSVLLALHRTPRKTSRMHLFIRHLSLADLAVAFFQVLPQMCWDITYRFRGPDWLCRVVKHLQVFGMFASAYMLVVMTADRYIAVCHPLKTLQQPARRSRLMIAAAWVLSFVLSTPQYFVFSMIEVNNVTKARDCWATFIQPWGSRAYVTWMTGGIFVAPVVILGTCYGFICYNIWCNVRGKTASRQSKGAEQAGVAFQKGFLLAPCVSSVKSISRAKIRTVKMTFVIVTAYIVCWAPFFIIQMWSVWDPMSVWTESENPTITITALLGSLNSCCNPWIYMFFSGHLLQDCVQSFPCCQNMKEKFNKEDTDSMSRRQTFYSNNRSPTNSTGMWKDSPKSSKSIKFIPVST
Description: Peptides of Formula (I) include Mpa-Tyr-Phe-Hgn-Asn-Cys-Pro-Lys(X)a-Gly-NH2 [SEQ ID NO. 24]; where (X)a is a peptide with “a” residues and each residue X is independently selected from Gly, and a D- or L-amino acid version of Ala, Lys, Orn, Glu, and Asp, where “a” is 0-10. V1a Human Vasopressin GPCR Cell Based Agonist Calcium Flux Assay were conducted at Eurofins Cerep SA (France) on a fee for service basis. Human recombinant CHO cells expressing human V1 receptors were distributed in microplates. Intracellular calcium signal was detected by fluorimetry, and the signal was acquired before and after addition of a known agonist concentration. The following agonist concentrations were tested (nM); 0.0128, 0.064, 0.32, 1.6, 8, 40, 200, and 1,000. […] All assays were performed in duplicate. Changes in fluorescence intensity reflected changes in the concentration of free cytosolic calcium. […] The half-maximal effective concentration (EC50) was determined by a non-linear regression analysis of the concentration-response curves generated with mean replicate values using Hill equation curve fitting (Cerep, I'Evescault, France).
V1a Human Vasopressin GPCR Cell Based Agonist Calcium Flux Assay were conducted using human recombinant CHO cells expressing human V1 receptor. Briefly, human recombinant CHO cells expressing human V1 receptor were distributed in microplates at 4.5×10^4 cells/well. The fluorescent probe (Fluo4 Direct, Invitrogen) mixed with probenicid in HBSS buffer (Invitrogen) complemented with 20 mM HEPES (Invitrogen) (pH 7.4) is then added into each well and equilibrated with the cells for 60 min at 37° C. then 15 min at 22° C. Thereafter, the assay plates are positioned in a microplate reader (CellLux, PerkinElmer) which is used for the addition of the test compound, reference agonist or HBSS buffer (basal control), and the measurements of changes in fluorescence intensity which varies proportionally to the free cytosolic Ca^2+ ion concentration. The following agonist concentrations were tested (nM), 0.0128, 0.064, 0.32, 1.6, 8, 40, 200, and 1,000. […] All assays were performed in duplicate. Changes in fluorescence intensity reflected changes in the concentration of free cytosolic calcium. […] Referring to FIG. 3 and Table 4, the half-maximal effective concentration (EC50) was determined by non-linear regression analysis of the concentration-response curves generated with mean replicate values using Hill equation curve fitting (Cerep, I'Evescault, France).

[1] = Therapeutic index (NOAEL/NOEL): paleness, lethargy, ataxia observation in Sprague-Dawley rats (Example 7); type: in vivo; conditions: for Paleness (Duration, hrs; SD) / Highest dose with no-observed effect level or paleness (NOEL) / NOAEL/NOEL (therapeutic index) / NOAEL at 24 h / NOAEL: S.C.; for Highest dose with no-observed effect level or paleness (NOEL) / NOAEL/NOEL (therapeutic index) / NOAEL at 24 h / Marked adverse effect (Lowest dose first showed Ataxia) / Mild adverse effect (Lowest dose first showed Lethargy) / NOAEL: rat; for NOAEL at 24 h: male, Sprague-Dawley; for NOAEL at 24 h / Marked adverse effect (Lowest dose first showed Ataxia) / Mild adverse effect (Lowest dose first showed Lethargy) / NOAEL: in vivo, sc; for NOAEL at 24 h / NOAEL: read-out: Highest dose with no-observed adverse effect level without lethargy (NOAEL)
Text: As used herein, the term “therapeutic index” (TI; also referred to as therapeutic ratio) is a quantitative measure of the relative safety of a drug. […] For the purpose of the present application, lethargy is a lack of energy and/or sleepiness which is visually observed in rats as a lack of mobility, such as a lack of mobility even in the presence of human activity. For the purpose of present specification, peripheral vasoconstriction is visually observed by a paleness of the extremities (e.g., skin of hands, feet, ears, and lips). In rats, peripheral vasoconstriction is determined by a side-by-side comparison of ear paleness in treated subjects (e.g., Sprague Dawley rats, a white rat with easily visualizable changes in redness/paleness) vs. untreated control subjects. The V1a agonist (or partial agonist) with a high therapeutic index will have a better safety profile than that with a low therapeutic index by providing a wider margin of safety for dosing during the treatment of the disease. This NOAEL/NOEL ratio, being a quantitative measure of the relative safety, is a comparison of the amount of a therapeutic agent that causes the therapeutic effect (useful effect, vasoconstriction for the purpose of the present specification) to the amount that causes toxicity. A V1a agonist that causes severe vasoconstriction will affect not only the peripheral vessels, with several layer of smooth muscles, but also other vessels present in other organs (e.g., heart, lungs, kidney, brain) and this will result in observed lethargy and eventually ataxia. A partial agonist is less likely to reach such an extreme level of vasoconstriction and is believed to have a higher therapeutic index.
In this study, 8 to 10 weeks male Sprague-Dawley rats (Charles River; Wilmington, MA) under isoflurane anesthesia (n=3 or 6) were intravenously (IV) or subcutaneously (SC) injected or administered with various test articles. Prior to administration of test articles, the injection area was clipped free of fur, to allow for clear visualization of the dose site, and animal weight was measured and recorded. Animals were housed two per cage. […] Lethargy is when the animal eyes cannot fully open and is associated deep breathing and limited of movement even in the presence of human.

[2] = at the Marked adverse effect dose
[3] = at the Mild adverse effect dose
[4] = Table 3, CHO cells expressing human V1 receptor, read-out: Estimated V1a EC50 (nM), n = 2

Row | EC50 (V1a receptor; Table 3, cells printed in μM, read-out: Estimated V1a EC50, n = 2) [µM] | Compound | EC50 (V1a receptor; FIG. 2 / FIG. 3 legend, n=2, read-out: EC50 for V1a receptor) [µM] | Emax (V1a receptor; Table 3, n = 2) [%] | Paleness (Duration, hrs; SD) [1, 2] | Paleness (Duration, hrs; SD) [1, 3] | Paleness (Duration, hrs; SD) ([1]; at the NOAEL dose) | Paleness (Duration, hrs; SD) ([1]; at the NOEL dose) | Highest dose with no-observed effect level or paleness (NOEL) [1] [mg/kg] | NOAEL/NOEL (therapeutic index) [1] | NOAEL at 24 h [1] [mg/kg] | Marked adverse effect (Lowest dose first showed Ataxia) [1] [mg/kg] | Mild adverse effect (Lowest dose first showed Lethargy) [1] [mg/kg] | NOAEL [1] [mg/kg] | EC50 (V1a receptor; [4]) [µM]
1 |  | NCC(=O)NCC(=O)NCC(=O)NCCCC[C@H](NC(=O)[C@@H]1CCCN1C(=O)[C@@H]1CSSCCC(=O)N[C@@H](Cc2ccc(O)cc2)C(=O)N[C@@H](Cc2ccccc2)C(=O)N[C@@H](CCCC(N)=O)C(=O)N[C@@H](CC(N)=O)C(=O)N1)C(=O)NCC(N)=O [SEQ ID NO. 10, Mpa-Tyr-Phe-Hgn-Asn-Cys-Pro-Lys(X)a-Gly-NH2; (X)a = (Gly)3] | 0.0535 | 32.9 | (6.4 ± 0.07) hrs | (6.27 ± 0.13) hrs | (5.65 ± 0.4) hrs | None observed | 0.0015 | 100 | 0.15 | 1.5 | 0.5 |  | 
2 | > 10 | CC(=O)NCC(=O)NCC(=O)NCC(=O)NCC(=O)NCC(=O)NCC(=O)NCC(=O)NCC(=O)NCC(=O)NCCCC[C@H](NC(=O)[C@@H]1CCCN1C(=O)[C@@H]1CSSCCC(=O)N[C@@H](Cc2ccc(O)cc2)C(=O)N[C@@H](Cc2ccccc2)C(=O)N[C@@H](CCCC(N)=O)C(=O)N[C@@H](CC(N)=O)C(=O)N1)C(=O)NCC(N)=O [SEQ ID NO. 26, Mpa-Tyr-Phe-Hgn-Asn-Cys-Pro-Lys(X)a-Gly-NH2; (X)a = (Gly)9-Ac] |  | 40 |  |  |  |  |  |  |  |  |  |  | 
3 |  | NCC[C@H](NC(=O)[C@@H]1CCCN1C(=O)[C@@H]1CSSCCC(=O)N[C@@H](Cc2ccc(O)cc2)C(=O)N[C@@H](Cc2ccccc2)C(=O)N[C@@H](CCCC(N)=O)C(=O)N[C@@H](CC(N)=O)C(=O)N1)C(=O)NCC(N)=O [SEQ ID NO. 31, Mpa-Tyr-Phe-Hgn-Asn-Cys-Pro-Dab-Gly-NH2] ([Mpa]YF[Aad](NH2)NCP[Dab]G-NH2; disulfide 1-6) |  |  |  |  |  |  | 0.0005 |  |  | 0.045 | 0.015 | 0.005 | 
4 |  | NCC(=O)NCC(=O)NCC(=O)NCC(=O)NCC(=O)NCCCC[C@H](NC(=O)[C@@H]1CCCN1C(=O)[C@@H]1CSSCCC(=O)N[C@@H](Cc2ccc(O)cc2)C(=O)N[C@@H](Cc2ccccc2)C(=O)N[C@@H](CCCC(N)=O)C(=O)N[C@@H](CC(N)=O)C(=O)N1)C(=O)NCC(N)=O [SEQ ID NO. 12, Mpa-Tyr-Phe-Hgn-Asn-Cys-Pro-Lys(X)a-Gly-NH2; (X)a = (Gly)5] |  | 29.6 | (>6.69)* hrs | (>6.65)* hrs | (5.79 ± 0.08) hrs | None Observed | 0.0015 | 100 | 0.15 | 1.5 | 0.5 |  | 0.0501
5 |  | NCC(=O)NCC(=O)NCC(=O)NCC(=O)NCCCC[C@H](NC(=O)[C@@H]1CCCN1C(=O)[C@@H]1CSSCCC(=O)N[C@@H](Cc2ccc(O)cc2)C(=O)N[C@@H](Cc2ccccc2)C(=O)N[C@@H](CCCC(N)=O)C(=O)N[C@@H](CC(N)=O)C(=O)N1)C(=O)NCC(N)=O [SEQ ID NO. 11, Mpa-Tyr-Phe-Hgn-Asn-Cys-Pro-Lys(X)a-Gly-NH2; (X)a = (Gly)4] |  | 33.6 | (>6.93)* hrs | (>6.85)* hrs | (6.02 ± 0.06) hrs | None Observed | 0.0015 | 100 | 0.15 | 1.5 | 0.5 |  | 0.161
6 |  | NCC(=O)NCC(=O)NCC(=O)NCC(=O)NCC(=O)NCC(=O)NCC(=O)NCC(=O)NCCCC[C@H](NC(=O)[C@@H]1CCCN1C(=O)[C@@H]1CSSCCC(=O)N[C@@H](Cc2ccc(O)cc2)C(=O)N[C@@H](Cc2ccccc2)C(=O)N[C@@H](CCCC(N)=O)C(=O)N[C@@H](CC(N)=O)C(=O)N1)C(=O)NCC(N)=O [SEQ ID NO. 15, Mpa-Tyr-Phe-Hgn-Asn-Cys-Pro-Lys(X)a-Gly-NH2; (X)a = (Gly)8] |  | 24.8 | (>6.19)* hrs | (>6.17)* hrs | (5.68 ± 0.06) hrs | None Observed | 0.0015 | 100 | 0.15 | 1.5 | 0.5 |  | 0.226
7 |  | NCC(=O)NCC(=O)NCCCC[C@H](NC(=O)[C@@H]1CCCN1C(=O)[C@@H]1CSSCCC(=O)N[C@@H](Cc2ccc(O)cc2)C(=O)N[C@@H](Cc2ccccc2)C(=O)N[C@@H](CCCC(N)=O)C(=O)N[C@@H](CC(N)=O)C(=O)N1)C(=O)NCC(N)=O [SEQ ID NO. 9, Mpa-Tyr-Phe-Hgn-Asn-Cys-Pro-Lys(X)a-Gly-NH2; (X)a = (Gly)2] |  | 37 | (>5.99)* hrs | (>6.04)* hrs | (5.74 ± 0.45) hrs | None Observed | 0.0015 | 100 | 0.15 | 1.5 | 0.5 |  | 0.0382
8 |  | NCCC[C@H](NC(=O)[C@@H]1CCCN1C(=O)[C@@H]1CSSCCC(=O)N[C@@H](Cc2ccc(O)cc2)C(=O)N[C@@H](Cc2ccccc2)C(=O)N[C@@H](CCCC(N)=O)C(=O)N[C@@H](CC(N)=O)C(=O)N1)C(=O)NCC(N)=O [SEQ ID NO. 30, Mpa-Tyr-Phe-Hgn-Asn-Cys-Pro-Orn-Gly-NH2] |  |  |  |  |  |  | 0.0005 |  |  | 0.044 | 0.015 | 0.005 | 
9 |  | NC[C@H](N)C(=O)NCCCC[C@H](NC(=O)[C@@H]1CCCN1C(=O)[C@@H]1CSSCCC(=O)N[C@@H](Cc2ccc(O)cc2)C(=O)N[C@@H](Cc2ccccc2)C(=O)N[C@@H](CCCC(N)=O)C(=O)N[C@@H](CC(N)=O)C(=O)N1)C(=O)NCC(N)=O [SEQ ID NO. 29, Mpa-Tyr-Phe-Hgn-Asn-Cys-Pro-Lys(X)a-Gly-NH2; (X)a = Dap] |  | 7.5 |  |  |  |  |  |  |  |  |  |  | 
